From patent US20240391872A1, “PHENOXY-ACETYL-THIOUREIDO-BENZENESULFONAMIDE DERIVATIVES, AND THEIR USES” (priority 2021, published 2024)
Entries after “also recorded” stand apart in the source; their conditions may differ. Like-named read-outs stand apart in the source and are kept apart here.

Key:
SARS-CoV-2 [1] = experiment: microbe, parasite or virus in culture; format: cell-based
Vero E6 cells = settings: cited from earlier work
[2] = infected non-human primates; cited from earlier work
sXBP-1 = experiment: ER stress mediator RNA levels by RT-qPCR in Huh7.5.1 cells; format: cell-based, human
SARS-CoV-2 [3] = experiment: microbe, parasite or virus in culture; format: cell-based; settings: for IC50: SARS-CoV-2 MOI 0.01, 48 h, vRNA RT-qPCR; for antiviral activity (relative SARS-CoV-2 vRNA levels): MOI 0.01, 48 h, indicated concentrations
SARS-CoV-2 [4] = experiment: SARS-CoV-2 infection of human airway epithelia (HAE); format: cell-based; settings: 10 μM; for viral RNA by RT-qPCR: wild type CoV2 MOI 0.01, 4 days
Experimental: (§1) FIG. 33 HAE cells were either untreated (Mock) or treated with 10 μM of RG10 and then infected with SARS-CoV-2 mNeonGreen virus at MOI 0.1. After 4 days, cells were fixed and stained for CoV2 spike protein and actin filaments (phalloidin staining). Z-stack images were acquired using a confocal microscope and processed using ImageJ to produce an average intensity image for each individual channel. Scale bar=20 μm.
as §1, with “34” for “33”
FIG. 35 3D representation of the images from [FIG. 33] and [FIG. 34] using the Imaris software. Scale bar=20 μm.
FIG. 37 Same samples from [FIG. 36] were processed to measure by RT-qPCR, relative vRNA levels normalized by Rpl27 RNA expression. The bars are means+/−SD from two pooled independent experiments. Student's t-test **p value<0.01; ***p value<0.005; ****p value<0.001.
FIG. 42 HAE cells were treated with 10 μM of RG10, RG10b, and Remdesivir and then infected for 4 days with CoV2 at MOI 0.01. Cells were then processed for RNA extraction and RT-qPCR experiments. […] Student's t-test *p value<0.05 **p value<0.01; ***p value<0.005.
Huh7.5.1 (Zhong J. et al. (2005) Proceedings of the National Academy of Sciences of the United States of America 102:9294-9), Vero E6 (ECACC #85020206), Caco2, and HEK 293T cells were cultured in DMEM GlutaMAX (Thermo Fisher Scientific) supplemented with 10% fetal calf serum and penicillin-streptomycin (500 μg/ml; GIBCO). HAE cells (Epithelix) were cultured in Mucilair media at the basal side and maintained at air-liquid interface. Apical washes were performed each 2-3 days by temporarily adding Mucilair media for 30 minutes. All cell types were maintained at 37° C. in a 5% CO2 atmosphere.
Cells were lysed and RNA immediately extracted using the Luna Cell Ready Lysis Module according to the manufacturer's protocol (New England Biolabs). RT-qPCR on extracted RNA was performed using the Luna One-Step RT-qPCR Kit (New England Biolabs). The samples were analyzed using a Lightcycler 480 instrument (Roche) using the following thermal cycle: Reverse transcription step at 55° C. for 15 min, initial denaturation at 95° C. for 2 min. Then, 40 cycles were programmed consisting of 15 s of denaturation at 95° C. followed by 30 s of annealing/extension at 55°. Fluorescent data collection was performed at the end of each cycle. SARS-CoV-2 viral RNA was detected using the N1 probe that targets specifically the N protein. […]

[5] = Pharmacokinetics experiments in mice; format: in vivo; settings: blood
From the text: (§2) The low potency of RG10 in HAE could be attributed to its weak stability and therefore, the inventor designed a novel RG10 derivative, which the inventor called RG10b. This derivative harbors a modification shielding a molecular weakness present in RG10.

[6] = Innocuity assessment in mice (weight); format: in vivo; settings: concentrations up to 10 mg/kg
From the text: Two mice were used per condition.
as §2

ZIKV = format: cell-based, Zika virus; settings: MOI 0.3, 24 h
[7] = Cytotoxicity, LDH release assay; format: cell-based
SARS-CoV-2 [8] = format: cell-based; settings: Caco2 cells, 10 μM, MOI 0.01, 48 h
HCoV-229E-Renilla = format: cell-based, human coronavirus 229E
SARS-CoV-2 [9] = experiment: Time-of-addition experiment, CoV2 in Vero E6 cells; format: cell-based
endoplasmic reticulum = experiment: Confocal imaging of ER morphology and compound localization in Huh7.5.1 cells; format: cell-based, human; settings: 50 μM, 6 h, Calnexin staining
Experimental: FIG. 15 Huh7.5.1 cells were treated with 25 µM of RG10-Rhod or free Rhodamine for 3 h. Cells were fixed and stained using an anti-Calnexin antibody as a marker for ER membranes and DAPI for nuclear staining. One channel corresponds to rhodamine fluorescence. The micrographs show the individual channels and merge that have been acquired using confocal microscopy and processed using ImageJ. Scale bar=10 μm.
FIG. 17 Huh.7.5.1 cells were treated with 50 μM of RG10 for 6 h and then were processed for confocal imaging.
Cells were then fixed and stained using an anti-Calnexin antibody as a marker for ER membranes and DAPI for nuclear staining. The micrographs show the individual channels and merge that have been acquired using confocal microscopy and processed using ImageJ. Scale bar=10 μm.
Cells grown on #1.5 glass coverslips were fixed with 4% PFA for 15 min. Cells were then permeabilized with 0.1% Triton X100 and saturated with 0.2% BSA. Then, primary antibody incubation was performed for 1 h. After a series of PBS washes, secondary antibodies were added for 30 min. DAPI staining was performed for 10 min to obtain nuclear staining. Coverslips were mounted on glass slides using Mowiol mounting media. Images were acquired using a Leica SP5 confocal microscope.

N-mRuby3 CoV2 = experiment: Live cell imaging and tracking of N-mRuby3 CoV2 particles in Huh7.5.1 cells; format: cell-based, SARS-CoV-2
sXBP1 = sXBP1 RNA levels in HAE cells infected with CoV2; format: cell-based, human; settings: 10 μM, CoV2 MOI 0.01, 4 days
Experimental: FIG. 36 HAE cells were treated with 10 μM of RG10 and Remdesivir and then infected with wild type CoV2 at MOI 0.01 for 4 days. Graphs show relative sXBP1 RNA levels normalized with GAPDH RNA expression.
Cells were lysed and RNA immediately extracted using the Luna Cell Ready Lysis Module according to the manufacturer's protocol (New England Biolabs). RT-qPCR on extracted RNA was performed using the Luna One-Step RT-qPCR Kit (New England Biolabs). The samples were analyzed using a Lightcycler 480 instrument (Roche) using the following thermal cycle: Reverse transcription step at 55° C. for 15 min, initial denaturation at 95° C. for 2 min. Then, 40 cycles were programmed consisting of 15 s of denaturation at 95° C. followed by 30 s of annealing/extension at 55°. Fluorescent data collection was performed at the end of each cycle. SARS-CoV-2 viral RNA was detected using the N1 probe that targets specifically the N protein. For normalization, primers targeting Rpl27 or GAPDH were utilized.

[10] = Huh 7.5.1 cells, 10 μM, MOI 0.01, 48 h
[11] = Huh 7.5.1 cells, 25 μM, MOI 0.01, 48 h
[12] = Severe acute respiratory syndrome coronavirus 2, Vero C1008, Vero E6 cells
[13] = Huh7.5.1 cells, 10 μM, MOI 0.5, 48 h

COc1ccc(N2CCC(NC(=S)Nc3ccc(S(=N)(=O)NC4CCCCC4)cc3)C2)cc1 (stereo not drawn) [RG27-1]
antiviral activity (relative SARS-CoV-2 vRNA levels) (SARS-CoV-2 [1]; [10]): cannot be observed
antiviral activity (relative SARS-CoV-2 vRNA levels) (SARS-CoV-2 [1]; [11]): harbor also an antiviral activity

CCN(CCO)CCCC(C)Nc1ccnc2cc(Cl)ccc12 (stereo not drawn) [Hydroxychloroquine]
EC50 (Vero E6 cells; Vero E6 cells): ~2000 nM
viral loads [2]: does not decrease the viral loads

COc1ccc(N2CCCC(NC(=S)Nc3ccc(S(=O)(=O)NC4CCCCC4)cc3)C2)cc1 (stereo not drawn) [RG27-8]
antiviral activity (relative SARS-CoV-2 vRNA levels) (SARS-CoV-2 [1]; [10]): cannot be observed
antiviral activity (relative SARS-CoV-2 vRNA levels) (SARS-CoV-2 [1]; [11]): harbor also an antiviral activity

O[C@@H](CS)[C@@H](O)CS [DTT, reference compound]
sXBP-1 RNA levels (sXBP-1; 1 mM, 6 h, positive control of ER stress): enriched

COc1ccc(N2CCC(NC(=S)Nc3ccc(S(=O)(=O)NC4CCCCC4)cc3)C2)cc1 (stereo not drawn) [RG10b]
EC50 (SARS-CoV-2 [3]; Severe acute respiratory syndrome coronavirus 2, Vero C1008, Vero E6 cells, CoV2 48 h (FIGS. 38 and 39)): < 1000 nM
IC50 (SARS-CoV-2 [3]; [12]): ~990 nM
antiviral activity (relative SARS-CoV-2 vRNA levels) (SARS-CoV-2 [3]; Vero E6 cells): more potent than RG10
viral RNA by RT-qPCR (SARS-CoV-2 [4]): more potent than RG10, showing antiviral activity similar to Remdesivir
half-life relative to RG10 [5]: more than 3 fold
half-life ([5]; mouse, read-out: pharmacokinetic half-life / stability in vivo): > 2 h
innocuity / toxicity in mice [6]: well supported by mice at concentrations up to 10 mg/kg; also recorded: no toxicity observed

Tunicamycin [reference compound]
antiviral activity against CoV2 (relative vRNA levels) (SARS-CoV-2 [3]): active against both viruses
antiviral activity against ZIKV (relative vRNA levels) (ZIKV; Vero E6, 1 μM): active against both viruses

NC(=O)c1nc(F)c[nH]c1=O [favipiravir]
potency in vitro (Vero E6 cells; in vitro): very low potency in vitro

COc1ccc(OCCNC(=S)Nc2ccc(S(=O)(=O)NC3CCCCC3)cc2)cc1 [RG10]
IC50 (SARS-CoV-2 [3]; [12]): 1550 nM
antiviral activity (relative SARS-CoV-2 vRNA levels) (SARS-CoV-2 [3]; Vero E6 cells): potent antiviral molecule with similar activity levels as Remdesivir; also recorded: high CoV2 antiviral activity
cytotoxicity [7]: did not show cytotoxicity at working concentrations
cytotoxicity ([7]; LDH release, working concentrations): very low cytotoxicity compared to Latrunculin, jasplakinolide and cytocalasin D
CoV2 antiviral activity (relative vRNA levels) (SARS-CoV-2 [1]; [10]): high CoV2 antiviral activity
neosynthesized Spike protein, Western blot (SARS-CoV-2 [1]; [13]): could barely be detected
viral RNA synthesis, dsRNA immunolabeling (SARS-CoV-2 [1]; [13]): prevents viral RNA synthesis
viral protein synthesis, microscopy and flow cytometry (SARS-CoV-2 [1]; [13]): prevent viral protein synthesis
potency at high multiplicity of infection (SARS-CoV-2 [1]; Huh7.5.1 cells, 10 μM, indicated MOI, 48 h): retained potency at high multiplicity of infection (MOI) similar to Rem
EC50 (SARS-CoV-2 [1]; Severe acute respiratory syndrome coronavirus 2, Huh-7.5.1, potency in Huh7.5.1 cells (FIG. 3)): ~1500 nM
CoV2 antiviral activity (relative vRNA levels) (SARS-CoV-2 [8]): high CoV2 antiviral activity
HAE viability (SARS-CoV-2 [4]; 4 days): viability was similar
viral infection, fluorescent mNeonGreen virus (SARS-CoV-2 [4]; MOI 0.1, 4 days): decreases viral infection
viral RNA by RT-qPCR (SARS-CoV-2 [4]): decreased by RG10, although the extent of the decrease was much lower than Remdesivir treatment
antiviral activity against ZIKV (relative vRNA levels) (ZIKV; Vero E6, 10 μM): no detectable effect on ZIKV; also recorded: unable to inhibit ZIKV replication
antiviral activity against HCoV-229E (HCoV-229E-Renilla): significant antiviral activity, although potency was lower
antiviral activity, vRNA levels, RG10 Pre (SARS-CoV-2 [9]; Vero E6, MOI 0.1, 10 μM during the first 4 h of infection and washed-out): no antiviral activity when incubated only during virus entry
vRNA expression levels, RG10 Post (SARS-CoV-2 [9]; Vero E6, MOI 0.1, 10 μM starting at 4 h post-infection): significantly decreased vRNA expression levels
viral N protein and dsRNA levels by flow cytometry, entry steps (SARS-CoV-2 [9]; Vero E6, MOI 0.1, 10 μM, 24 h): some inhibition was also observed at the entry steps
viral N protein and dsRNA levels by flow cytometry, post entry (SARS-CoV-2 [9]; Vero E6, MOI 0.1, 10 μM, 24 h): strong antiviral activity post entry
sXBP-1 RNA levels (sXBP-1; 10 μM): no difference was observed between RG10 and RG7
sXBP-1 RNA levels (sXBP-1; 50 μM, 6 h): enriched
ER morphology (endoplasmic reticulum): perturbed ER morphology
mean particle speed of virus (N-mRuby3 CoV2): slowed down virus movement to the ER
sXBP-1 RNA levels (sXBP1): upregulated
